# According to patent publication US4731375A, “Coumarin derivatives and antiallergic agents containing the same” (Kaken Pharmaceutical Co., Ltd., priority 1984, dated 1988):
# Key:
# [1] = tested on: passive cutaneous anaphylaxis by homocytotropic antibody (HTA); assay: Passive Cutaneous Anaphylaxis (PCA) test in rat (Test Example 1); type: in vivo, rat (Wistar); conditions: 0.5 h, 72 hour PCA, intravenous just before antigen, sacrificed 30 minutes after antigen challenge, read-out: ID50 (fifty % inhibitory dose for the leaked amount of the pigment)
# Description: (§1) Fifty % inhibitory dose (ID50) in Passive Cutaneous Anaphylaxis (PCA) test in rat (Test Example 1) and Minimal Lethal Dose (MLD) in intraperitoneal acute toxicity test in mouse (Test Example 2) were determined for the typical compounds of the present invention as follows:
# The antiallergic activities of the chromene derivatives of the present invention were tested in passive cutaneous anaphylaxis (hereinafter referred to as "PCA") by homocytotropic antibody (hereinafter referred to as "HTA").
# DNP-As(2,4-dinitro phenyl-coupled Ascaris extract) was prepared according to the method by Strejan et al. (J. Immunol. Vol. 98, P 893, (1967)) and by Eisen (J. Amer. Chem. Soc. Vol. 75, P 4593, (1953)) to be used as antigen. Antiserum containing HTA was prepared by the method according to Tada and Okumura (J. Immunol. Vol. 106, P 1002, (1972)) as follows: i.e. spleen was taken out from Wistar female rat weighing 180 to 200 g and several days after 1 mg of DNP-As and 1×10^10 of Bordetella pertussis vaccine were injected into four footpads of the rat to induce senitization. After five days, again 0.5 mg of DNP-As was solely injected into the dorsal muscles. Eight days after priming, blood was taken by paracentesis of aorta under anesthetic condition with ether and the obtained antiserum was stored at -80° C.
# Titer of the stored antiserum was determined by 72 hour PCA method in rat as described in the following item (2). The maximal dilution of the antiserum which can give a spot with a diameter of around 5 mm was usually 500 times.
# The diluted antiserum (×30) was injected 0.05 ml/site intradermally into the shaved back of normal Wistar rat weighing 140 to 160 g. After 72 hours, 1 ml of physiological saline containing 2 mg of DNP-As and 2.5 mg of Evans blue was injected intravenously.
# Test compound was dissolved in 0.5% aqueous solution of KHCO3, which was administered intravenously in an amount of 2 ml/kg just before the administration of the antigen. The animal was sacrificed 30 minutes after antigen challenge and the cutis was peeled off. The intensity of PCA was evaluated for the measurment of the leaked amount of the pigment. The leaked pigment was extracted according to the method by Harada et al. (Jpn. J. Allergol., Vol. 15, P 1, (1966)) and the leaked amount was measured by spectrophotometry. Fifty % inhibitory dose for the leaked amount of the pigment was regarded as ID50 value of the test compound.
# mouse = assay: intraperitoneal acute toxicity test in mouse (Test Example 2); type: in vivo, mouse (Slc: ddy male); conditions: 14 days observation, five mice per group
# Description: as §1
# The intraperitoneal actute toxicity test was carried out using mouse for the chromene derivatives of the present invention. Normal Slc: ddy male 4 weeks mice were preliminarily breeded for a week at a breeding room and those weighing 25 to 27 g were subjected to the test. The test compounds were used by suspending in 0.5% aqueous solution of sodium carboxymethylcellulose. Ten ml/kg was administered intraperitoneally through the right abdomen of the animal using the prescribed needle (five mice per group). The lethal dose was presumed by the observation during 14 days after administration.
# [2] = tested on: experimental asthma model of animals; assay: experimental asthma model of animals; type: in vivo
SMILES,ED50 [1],MLD (Minimal Lethal Dose) (mouse),inhibitory effect in experimental asthma model [2]
"O=C(O)COc1cccc2cc(-c3nnn[nH]3)c(=O)oc12 [Compound A, [2-oxo-3-(1H-tetrazole-5-yl)-2H-chromene-8-yloxy]acetic acid]",0.5 mg/kg,> 1000 mg/kg,–
"O=C(O)CCCOc1cccc2cc(-c3nnn[nH]3)c(=O)oc12 [Compound B, 4-[2-oxo-3-(1H-tetrazole-5-yl)-2H-chromene-8 yloxy]butyric acid]",0.1 mg/kg,> 1600 mg/kg,inhibitory effect in high degree
"O=C(O)CCCOc1ccc2oc(=O)c(-c3nnn[nH]3)cc2c1 [Compound C, 4-[2-oxo-3-(1H-tetrazole-5-yl)-2H-chromene-6-yloxy]butyric acid]",0.1 mg/kg,> 1500 mg/kg,–
"O=C(O)CCCCCOc1cccc2cc(-c3nnn[nH]3)c(=O)oc12 [Compound D, 6-[2-oxo-3-(1H-tetrazole-5-yl)-2H-chromene-8-yloxy]hexanoic acid]",0.16 mg/kg,> 1600 mg/kg,–
"O=C(O)CCCCCOc1ccc2cc(-c3nnn[nH]3)c(=O)oc2c1 [Compound E, 6-[2-oxo-3-(1H-tetrazole-5-yl)-2H-chromene-7-yloxy]hexanoic acid]",0.2 mg/kg,> 1500 mg/kg,–
"O=C(O)CCCCCOc1ccc2oc(=O)c(-c3nnn[nH]3)cc2c1 [Compound F, 6-[2-oxo-3-(1H-tetrazole-5-yl)-2H-chromene-6-yloxy]hexanoic acid]",0.16 mg/kg,> 1600 mg/kg,–
"O=C(O)CCCCCOc1cccc2oc(=O)c(-c3nnn[nH]3)cc12 [Compound G, 6-[2-oxo-3-(1H-tetrazole-5-yl)-2H-chromene-5-yloxy]hexanoic acid]",0.2 mg/kg,> 1500 mg/kg,–
